Assay results taken from patent publication US20100041089A1, “IMPROVED METHOD FOR DETECTING CHEMICAL […]” (priority 2006, published 2010).

System: yeast genes (expressed mRNA)
Assay: DNA chip measurement of expressed mRNA of yeast genes after culture with a toxic chemical substance
Format: cell-based, Saccharomyces cerevisiae S288C
Details: for level of expressed mRNA in the presence of chemical substance / level in the absence of chemical substance: cultured two hours with the chemical substance; for The level of expressed mRNA in the presence of chemical substance/The level of expressed mRNA in the absence of chemical substance: cultured two hours with substance
In short: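 Two-hour exposure of growing S. cerevisiae S288C (YPD, 25° C) to a sublethal toxicant preceded RNA isolation. Fluorescent cDNA was hybridized to a whole-genome array; a treated-to-untreated signal ratio of two or more was taken as significant.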

Manganese ethylenebis(dithiocarbamate) [(8)]
level of expressed mRNA in the presence of chemical substance / level in the absence of chemical substance (yeast gene YDR128W): 1.1
level of expressed mRNA in the presence of chemical substance / level in the absence of chemical substance (yeast gene YDR133C): 0.5
level of expressed mRNA in the presence of chemical substance / level in the absence of chemical substance (yeast gene YDR250C): 1.1
level of expressed mRNA in the presence of chemical substance / level in the absence of chemical substance (yeast gene YDR278C): 0.5
level of expressed mRNA in the presence of chemical substance / level in the absence of chemical substance (yeast gene YDR281C): 1.2
The level of expressed mRNA in the presence of chemical substance/The level of expressed mRNA in the absence of chemical substance (yeast gene YDR330W): 1.1
level of expressed mRNA in the presence of chemical substance / level in the absence of chemical substance (yeast gene YDR366C): 1.1
The level of expressed mRNA in the presence of chemical substance/The level of expressed mRNA in the absence of chemical substance (yeast gene YDR411C): 0.9
The level of expressed mRNA in the presence of chemical substance/The level of expressed mRNA in the absence of chemical substance (yeast gene YDR511W): 1.7
The level of expressed mRNA in the presence of chemical substance/The level of expressed mRNA in the absence of chemical substance (yeast gene YDR545W): 0.6
The level of expressed mRNA in the presence of chemical substance/The level of expressed mRNA in the absence of chemical substance (yeast gene YEL001C): 1.2
The level of expressed mRNA in the presence of chemical substance/The level of expressed mRNA in the absence of chemical substance (yeast gene YER004W): 1.1
The level of expressed mRNA in the presence of chemical substance/The level of expressed mRNA in the absence of chemical substance (yeast gene YER035W): 1.2
The level of expressed mRNA in the presence of chemical substance/The level of expressed mRNA in the absence of chemical substance (yeast gene YER079W): 1.4
The level of expressed mRNA in the presence of chemical substance/The level of expressed mRNA in the absence of chemical substance (yeast gene YER106W): 1.2
The level of expressed mRNA in the presence of chemical substance/The level of expressed mRNA in the absence of chemical substance (yeast gene YER158C): 0.9
The level of expressed mRNA in the presence of chemical substance/The level of expressed mRNA in the absence of chemical substance (yeast gene YER163C): 1.4
The level of expressed mRNA in the presence of chemical substance/The level of expressed mRNA in the absence of chemical substance (yeast gene YER175C): 1.1
The level of expressed mRNA in the presence of chemical substance/The level of expressed mRNA in the absence of chemical substance (yeast gene YFL006W): 1.0
The level of expressed mRNA in the presence of chemical substance/The level of expressed mRNA in the absence of chemical substance (yeast gene YFL010C): 1.0
The level of expressed mRNA in the presence of chemical substance/The level of expressed mRNA in the absence of chemical substance (yeast gene YFL024C): 0.9
The level of expressed mRNA in the presence of chemical substance/The level of expressed mRNA in the absence of chemical substance (yeast gene YFL032W): 0.4
level of expressed mRNA in the presence of chemical substance / level in the absence of chemical substance (yeast gene YFR026C): 1.3
The level of expressed mRNA in the presence of chemical substance/The level of expressed mRNA in the absence of chemical substance (yeast gene YGL037C): 1.2
The level of expressed mRNA in the presence of chemical substance/The level of expressed mRNA in the absence of chemical substance (yeast gene YGL047W): 1.1
The level of expressed mRNA in the presence of chemical substance/The level of expressed mRNA in the absence of chemical substance (yeast gene YGL053W): 1.2
level of expressed mRNA in the presence of chemical substance / level in the absence of chemical substance (yeast gene YGL088W): 0.5
The level of expressed mRNA in the presence of chemical substance/The level of expressed mRNA in the absence of chemical substance (yeast gene YGL121C): 3.0
The level of expressed mRNA in the presence of chemical substance/The level of expressed mRNA in the absence of chemical substance (yeast gene YGL199C): 0.7
level of expressed mRNA in the presence of chemical substance / level in the absence of chemical substance (yeast gene YGR038W): 0.7
The level of expressed mRNA in the presence of chemical substance/The level of expressed mRNA in the absence of chemical substance (yeast gene YGR101W): 0.8
The level of expressed mRNA in the presence of chemical substance/The level of expressed mRNA in the absence of chemical substance (yeast gene YGR110W): 1.5
The level of expressed mRNA in the presence of chemical substance/The level of expressed mRNA in the absence of chemical substance (yeast gene YGR130C): 0.9
level of expressed mRNA in the presence of chemical substance / level in the absence of chemical substance (yeast gene YGR139W): 0.6
The level of expressed mRNA in the presence of chemical substance/The level of expressed mRNA in the absence of chemical substance (yeast gene YGR154C): 1.7
The level of expressed mRNA in the presence of chemical substance/The level of expressed mRNA in the absence of chemical substance (yeast gene YGR221C): 1.1
level of expressed mRNA in the presence of chemical substance / level in the absence of chemical substance (yeast gene YGR243W): 1.3
level of expressed mRNA in the presence of chemical substance / level in the absence of chemical substance (yeast gene YGR293C): 1.3
level of expressed mRNA in the presence of chemical substance / level in the absence of chemical substance (yeast gene YHL006C): 1.1
level of expressed mRNA in the presence of chemical substance / level in the absence of chemical substance (yeast gene YHR095W): 1.0
level of expressed mRNA in the presence of chemical substance / level in the absence of chemical substance (yeast gene YHR105W): 1.0
The level of expressed mRNA in the presence of chemical substance/The level of expressed mRNA in the absence of chemical substance (yeast gene YHR138C): 1.4
level of expressed mRNA in the presence of chemical substance / level in the absence of chemical substance (yeast gene YHR181W): 0.9
The level of expressed mRNA in the presence of chemical substance/The level of expressed mRNA in the absence of chemical substance (yeast gene YHR199C): 1.0
The level of expressed mRNA in the presence of chemical substance/The level of expressed mRNA in the absence of chemical substance (yeast gene YIL023C): 0.7
The level of expressed mRNA in the presence of chemical substance/The level of expressed mRNA in the absence of chemical substance (yeast gene YIL041W): 0.9
The level of expressed mRNA in the presence of chemical substance/The level of expressed mRNA in the absence of chemical substance (yeast gene YIL087C): 1.1
level of expressed mRNA in the presence of chemical substance / level in the absence of chemical substance (yeast gene YIL127C): 1.2
level of expressed mRNA in the presence of chemical substance / level in the absence of chemical substance (yeast gene YJL017W): 1.0
level of expressed mRNA in the presence of chemical substance / level in the absence of chemical substance (yeast gene YJL037W): 1.2
The level of expressed mRNA in the presence of chemical substance/The level of expressed mRNA in the absence of chemical substance (yeast gene YJL057C): 1.5
The level of expressed mRNA in the presence of chemical substance/The level of expressed mRNA in the absence of chemical substance (yeast gene YJL066C): 0.8
The level of expressed mRNA in the presence of chemical substance/The level of expressed mRNA in the absence of chemical substance (yeast gene YJL082W): 0.9
